Data from patent publication US9096581B2, “Fluoroethyl thiamine or salts thereof and application thereof in preparation of anticoccidial drugs” (GUANGZHOU ORIGMOL FEED-ADDITIVE CO., LTD, priority 2012, dated 2015).

Tested on: Eimeria tenella GD strains
Experiment: Comparison with other anticoccidial drugs in chickens infected with Eimeria tenella GD (Embodiment 3)
Assay type: in vivo
Parameters: oocyst value: scale not given here
Details: for number of oocysts in cecum / lesion value / average weight gain: 7th day; for lesion value: cecum, scale 0-40; for survival rate / average weight gain / bloody feces scoring: chickens; for bloody feces scoring: 5 days after infecting, score 0-4; for oocyst value: converted per Table 2; for relative weight gain rate: vs non-infected non-drug control
Text: 1-day-old Lingnan yellow chickens, purchased from Poultry Research Unit, Bureau of Animal Husbandry, Guangdong Academy of Agricultural Sciences, bred under coccidium-free environment, and subjected to experiment after no coccidium oocyst is found in feces through microscopic examination when the chickens are 14 days old. Perfect compound feed for chickens: prepared by Huizhou Yuantai Feed Co. Ltd., and containing no antibacterial or anticoccidial additive.
Eimeria tenella GD strains, having no resistance to various anticoccidial drugs. Breeding and amplifying in one chicken before the experiment, collecting fresh oocysts, sporulating, and preserving at 4° C. for later use.
Weighing the 14-day-old experiment chickens one by one, rejecting emaciated chickens or overweighted chickens, selecting healthy chickens of which the individual body weight difference is within 20 g, and dividing into 6 groups with 30 chickens in each group. Groups 1 and 2 are respectively a non-drug-applied and non-coccidium-killed control group and a coccidium-infected and non-drug-applied control group, and Groups 3-6 are respectively added with different anticoccidial drugs according to Table 4. Feeding with feed containing different drugs on the day of experiment grouping, enabling the chickens to freely take in the feed, and feeding the chickens until the experiment ends.
Except the non-coccidium-infected and non-drug-applied control group, giving each experiment chicken in each experiment group with 2.5×10^5 eimeria tenella sporulated oocysts via the crop on next day of the grouping day. During experiment, observing and recording the spirit, appetite, bloody feces situation, death count and the like of the chickens every day. Performing bloody feces scoring on the chickens in each group 5 days after infecting. On the 7th day, respectively weighing all the chickens in each group, then autopsying them, observing cecum lesions and counting the oocysts in the cecum.
The evaluation standard is the same with Embodiment 2.

Row | SMILES | anticoccidial index (ACI) (5 ppm in feed) | number of oocysts in cecum (5 ppm in feed) | lesion value (5 ppm in feed) | survival rate (5 ppm in feed) [%] | average weight gain (5 ppm in feed) [g/chicken] | bloody feces scoring (5 ppm in feed) | oocyst value (5 ppm in feed) | relative weight gain rate (5 ppm in feed) [%] | anticoccidial index (ACI) (125 ppm in feed) | number of oocysts in cecum (125 ppm in feed) | lesion value (125 ppm in feed) | survival rate (125 ppm in feed) [%] | average weight gain (125 ppm in feed) [g/chicken] | bloody feces scoring (125 ppm in feed) | oocyst value (125 ppm in feed) | relative weight gain rate (125 ppm in feed) [%]
1 | CO[C@@H]1[C@@H](OC)[C@H](C)[C@@](O)(CC(=O)O)O[C@H]1[C@H](C)[C@H]1O[C@@]2(CC[C@@](C)([C@H]3CC[C@@](C)([C@@H]4O[C@@H]([C@H]5O[C@](C)(O)[C@H](C)C[C@@H]5C)C[C@@H]4O[C@@H]4C[C@H](OC)[C@@H](OC)[C@H](C)O4)O3)O2)C[C@H](O)[C@H]1C [maduramicin] | 186.7 | 1.265 ×10^6/chicken | 6 | 100 | 168.4 | 0 | 5 | 97.7 |  |  |  |  |  |  |  | 
2 | Cc1cc(C)nc(O)n1.O=C(Nc1ccc([N+](=O)[O-])cc1)Nc1ccc([N+](=O)[O-])cc1 [nicarbazin] |  |  |  |  |  |  |  |  | 192.9 | 0 ×10^6/chicken | 0 | 100 | 160.5 | 0 | 0 | 92.9
